The subject of one assay is OVCAR-3. As to the kind of experiment: Cytotoxicity against human OVCAR-3 cells assessed as inhibition of cell growth incubated for 72 hrs by CellTiter-Blue cell viability assay. Format: functional, cell-based. Particulars: OVCAR-3, 72 h. A general note: The colour change of resazurin is a common sign of viable cells or microbes.
Assay [1] concerns the target Forkhead box protein O3 (Homo sapiens) (UniProt O43524). The assay is described as follows: Transactivation of FOXO3a in human OVACAR-3 cells assessed as increase in nuclear accumulation of FOXO3a at 1 uM incubated for 24 hrs by western blot analysis. Format: cell-based. Particulars: OVCAR-3, filed as activator. (In western blotting, separated proteins are transferred to a membrane and probed.)

For assay [2] the target is unchanged. The assay is described as follows: Transactivation of FOXO3a in human OVACAR-3 cells assessed as decrease in cytosolic concentration of FOXO3a at 1 uM for 3 hrs by western blot analysis. The settings on record: OVCAR-3, filed as activator. Format: cell-based.
Assay [3] shares this target. The assay is described as follows: Activation of FOXO3a in human OVACAR-3 cells assessed as decrease in cytosolic localization of FOXO3a at 1 uM incubated for 3 hrs by DAPI staining based immunofluorescence assay. The class given is cell-based. The settings on record: OVCAR-3, filed as activator.
Assay [4] shares this target. As to the kind of experiment: Activation of FOXO3a in human OVACAR-3 cells assessed as increase in nuclear accumulation of FOXO3a at 1 uM incubated for 3 hrs by DAPI staining based immunofluorescence assay. Format: cell-based. The settings on record: OVCAR-3, filed as activator.
Assay [5] shares this target. The assay is described as follows: Transactivation of FOXO3a in human OVACAR-3 cells assessed as nuclear accumulation of FOXO3a at 2 uM incubated for 3 hrs by western blot analysis. Format: cell-based. Particulars: OVCAR-3, filed as activator.
Assay [6] has the same target. The assay is described as follows: Activation of FOXO3a in human OVACAR-3 cells assessed as nuclear accumulation of FOXO3a at 2 uM incubated for 3 hrs by DAPI staining based immunofluorescence assay. The class given is cell-based. Particulars: OVCAR-3, filed as activator.
For assay [7] the target is unchanged. The assay is described as follows: Activation of FOXO3a in human OVACAR-3 cells assessed as cytosolic localization of FOXO3a at 2 uM incubated for 3 hrs by DAPI staining based immunofluorescence assay. The class given is cell-based. The settings on record: OVCAR-3, filed as activator.

As usually defined, the IC50 is the concentration that gives 50% inhibition.

Structures are written as SMILES. The source made the active and inactive calls. The rule behind the calls is not given here.

Chain of Forkhead box protein O3 (Homo sapiens) (O43524 whole entry): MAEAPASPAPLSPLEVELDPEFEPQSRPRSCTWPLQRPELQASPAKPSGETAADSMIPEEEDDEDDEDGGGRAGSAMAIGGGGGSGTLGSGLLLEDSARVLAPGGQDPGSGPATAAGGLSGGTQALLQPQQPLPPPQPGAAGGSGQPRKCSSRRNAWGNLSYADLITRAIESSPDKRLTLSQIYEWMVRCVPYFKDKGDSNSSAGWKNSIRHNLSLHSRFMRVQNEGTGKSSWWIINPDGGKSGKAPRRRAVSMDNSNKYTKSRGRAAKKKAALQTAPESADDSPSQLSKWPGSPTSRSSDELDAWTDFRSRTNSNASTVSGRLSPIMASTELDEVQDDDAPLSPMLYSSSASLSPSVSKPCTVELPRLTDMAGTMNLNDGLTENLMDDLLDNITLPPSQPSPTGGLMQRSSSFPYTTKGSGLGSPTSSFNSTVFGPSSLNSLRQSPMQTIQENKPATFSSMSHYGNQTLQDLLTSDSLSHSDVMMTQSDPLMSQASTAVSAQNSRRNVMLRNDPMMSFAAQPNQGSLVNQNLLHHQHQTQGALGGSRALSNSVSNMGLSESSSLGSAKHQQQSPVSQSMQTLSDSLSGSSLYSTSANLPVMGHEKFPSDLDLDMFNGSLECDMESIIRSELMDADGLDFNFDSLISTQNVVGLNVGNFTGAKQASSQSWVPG

`COc1nsc2c1C(=O)c1c(O)cccc1C2=O`: the IC50 in the assay on OVCAR-3 stood at 0.301 µM. The outcome in assay [1], in assay [2], in assay [3] and in assay [4] was Active.
For the compound `O=c1cc(N2CCOCC2)oc2c(-c3ccccc3)cccc12` [LY-294002], the result in assay [5], in assay [6] and in assay [7] was Active. For the same compound, the IC50 in the assay on OVCAR-3 worked out at 9.19 µM.
For `COc1nsc2c1C(=O)c1c(O)ccc(C(=O)O)c1C2=O`, the concentration for half-maximal inhibition (IC50) in the assay with OVCAR-3 was determined as 3.03 µM.
The same measure, in the same setting: next, `COc1nsc2c1C(=O)c1ccccc1C2=O`: 0.6 µM.

The values above are taken from ChEMBL document CHEMBL5143579, “Aulosirazoles B and C from the Cyanobacterium Nostoc sp. UIC 10771: Analogues of an Isothiazolonaphthoquinone Scaffold that Activate Nuclear Transcription Factor FOXO3a in Ovarian Cancer Cells” (J Nat Prod, 2022).
